Where “and” joins values, the source holds several entries; their conditions need not be identical. Identical values can stand only once.
Assays:
ZEAMX [1] = assay: Postemergence herbicidal evaluation; type: in vivo
TRZAWR = assay: Preemergence herbicidal evaluation; type: in vivo; set-up: scale not given here
IPOSS [2] = assay: Preemergence herbicidal evaluation; type: in vivo; set-up: scale not given here
AMBEL [3] = assay: Preemergence herbicidal evaluation; type: in vivo; set-up: scale not given here
ECHCG = assay: Preemergence herbicidal evaluation; type: in vivo; set-up: scale not given here
CHEAL = assay: Preemergence herbicidal evaluation; type: in vivo; set-up: scale not given here
CASOB [4] = assay: Preemergence herbicidal evaluation; type: in vivo; set-up: scale not given here
GALAP [5] = assay: Preemergence herbicidal evaluation; type: in vivo; set-up: scale not given here
ZEAMX [6] = assay: Preemergence herbicidal evaluation; type: in vivo; set-up: scale not given here
SETVI [7] = assay: Preemergence herbicidal evaluation; type: in vivo; set-up: scale not given here
SETVI [8] = assay: Postemergence herbicidal evaluation; type: in vivo
IPOSS [9] = assay: Postemergence herbicidal evaluation; type: in vivo
AMBEL [10] = assay: Postemergence herbicidal evaluation; type: in vivo
GALAP [11] = assay: Postemergence herbicidal evaluation; type: in vivo
CASOB [12] = assay: Postemergence herbicidal evaluation; type: in vivo
[13] = tested on: Morningglory, Ivyleaf, Ipomoea hederacea; assay: Postemergence herbicidal evaluation, IPOHE; type: in vivo, (L.) Jacq.; settings: 0.0630 kg/ha
Summary of the method: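 Greenhouse postemergence test. Seedlings about two weeks old sprayed (40 psi) with compound in 50/50 acetone/water, 0.5% TWEEN 20, at rates near 0.0157–0.500 kg/ha; rated 0–9 by eye at 4–5 weeks.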

ORYSAT = assay: Postemergence herbicidal evaluation; type: in vivo, Oryza sativa

Cc1nsc2ccc(-n3c(=O)cc(C(F)(F)F)n(C)c3=O)cc12 [Compound 6, 1-Methyl-3-(3-methyl-1,2-benzisothiazol-5-yl)-6-(trifluoromethyl)-2,4(1H,3H)-pyrimidinedione]
herbicidal effect rating (ZEAMX [1]; 0.0157-0.0160 kg/ha): 3.5 and 4.0 and 2.0
herbicidal effect rating (ZEAMX [1]; 0.0313-0.0320 kg/ha): 3.8 and 4.3 and 3.5
herbicidal effect rating (ZEAMX [1]; 0.0625-0.0640 kg/ha): 5.0 and 4.5 and 3.5
herbicidal effect rating (ZEAMX [1]; 0.1250 kg/ha): 3.5
herbicidal effect rating (ZEAMX [1]; 0.2500 kg/ha): 3.5
herbicidal effect rating (ZEAMX [1]; 0.5000 kg/ha): 3.0
herbicidal effect rating (TRZAWR; 0.0156-0.0160 kg/ha): 3.0 and 3.5
herbicidal effect rating (TRZAWR; 0.0313-0.0320 kg/ha): 5.6 and 6.5 and 6.3
herbicidal effect rating (TRZAWR; 0.0620-0.0630 kg/ha): 7.0 and 8.3
herbicidal effect rating (TRZAWR; 0.1250 kg/ha): 8.7
herbicidal effect rating (TRZAWR; 0.2500 kg/ha): 8.0
herbicidal effect rating (TRZAWR; 0.5000 kg/ha): 9.0
herbicidal effect rating (IPOSS [2]; 0.0156-0.0160 kg/ha): 7.5
herbicidal effect rating (IPOSS [2]; 0.0313-0.0320 kg/ha): 7.5 and 7.0
herbicidal effect rating (IPOSS [2]; 0.0620-0.0630 kg/ha): 7.0
herbicidal effect rating (IPOSS [2]; 0.1250 kg/ha): 9.0
herbicidal effect rating (IPOSS [2]; 0.2500 kg/ha): 9.0
herbicidal effect rating (IPOSS [2]; 0.5000 kg/ha): 9.0
herbicidal effect rating (AMBEL [3]; 0.0313-0.0320 kg/ha): 7.4 and 9.0 and 4.5
herbicidal effect rating (AMBEL [3]; 0.0620-0.0630 kg/ha): 9.0 and 6.0
herbicidal effect rating (AMBEL [3]; 0.1250 kg/ha): 7.0
herbicidal effect rating (AMBEL [3]; 0.2500 kg/ha): 9.0
herbicidal effect rating (AMBEL [3]; 0.5000 kg/ha): 9.0
herbicidal effect rating (ECHCG; 0.0313-0.0320 kg/ha): 5.6 and 8.0 and 4.5
herbicidal effect rating (ECHCG; 0.0620-0.0630 kg/ha): 9.0 and 5.5
herbicidal effect rating (ECHCG; 0.1250 kg/ha): 6.0
herbicidal effect rating (ECHCG; 0.2500 kg/ha): 9.0
herbicidal effect rating (ECHCG; 0.5000 kg/ha): 9.0
herbicidal effect rating (CHEAL; 0.0156-0.0160 kg/ha): 8.8 and 9.0 and 5.0
herbicidal effect rating (CHEAL; 0.0313-0.0320 kg/ha): 9.0 and 8.0
herbicidal effect rating (CHEAL; 0.0620-0.0630 kg/ha): 9.0
herbicidal effect rating (CHEAL; 0.1250 kg/ha): 9.0
herbicidal effect rating (CHEAL; 0.2500 kg/ha): 9.0
herbicidal effect rating (CHEAL; 0.5000 kg/ha): 9.0
herbicidal effect rating (CASOB [4]; 0.0313-0.0320 kg/ha): 6.0 and 9.0 and 4.5
herbicidal effect rating (CASOB [4]; 0.0620-0.0630 kg/ha): 7.0 and 5.5
herbicidal effect rating (CASOB [4]; 0.1250 kg/ha): 6.5
herbicidal effect rating (CASOB [4]; 0.2500 kg/ha): 9.0
herbicidal effect rating (CASOB [4]; 0.5000 kg/ha): 9.0
herbicidal effect rating (GALAP [5]; 0.0156-0.0160 kg/ha): 4.8 and 8.5
herbicidal effect rating (GALAP [5]; 0.0313-0.0320 kg/ha): 5.3 and 8.5 and 9.0
herbicidal effect rating (GALAP [5]; 0.0620-0.0630 kg/ha): 9.0
herbicidal effect rating (GALAP [5]; 0.1250 kg/ha): 9.0
herbicidal effect rating (GALAP [5]; 0.2500 kg/ha): 9.0
herbicidal effect rating (GALAP [5]; 0.5000 kg/ha): 9.0
herbicidal effect rating (ZEAMX [6]; 0.0313-0.0320 kg/ha): 4.2 and 7.5 and 5.3
herbicidal effect rating (ZEAMX [6]; 0.0620-0.0630 kg/ha): 8.0 and 6.0
herbicidal effect rating (ZEAMX [6]; 0.1250 kg/ha): 6.5
herbicidal effect rating (ZEAMX [6]; 0.2500 kg/ha): 9.0
herbicidal effect rating (ZEAMX [6]; 0.5000 kg/ha): 9.0
herbicidal effect rating (SETVI [7]; 0.0313-0.0320 kg/ha): 8.4 and 9.0 and 5.5
herbicidal effect rating (SETVI [7]; 0.0620-0.0630 kg/ha): 9.0 and 6.0
herbicidal effect rating (SETVI [7]; 0.1250 kg/ha): 9.0
herbicidal effect rating (SETVI [7]; 0.2500 kg/ha): 9.0
herbicidal effect rating (SETVI [7]; 0.5000 kg/ha): 9.0
herbicidal effect rating (SETVI [8]; 0.1250 kg/ha): 9.0
herbicidal effect rating (SETVI [8]; 0.2500 kg/ha): 9.0
herbicidal effect rating (SETVI [8]; 0.5000 kg/ha): 9.0
herbicidal effect rating (IPOSS [9]; 0.0157-0.0160 kg/ha): 7.5 and 7.0
herbicidal effect rating (IPOSS [9]; 0.0313-0.0320 kg/ha): 9.0 and 8.0
herbicidal effect rating (IPOSS [9]; 0.0625-0.0640 kg/ha): 9.0
herbicidal effect rating (IPOSS [9]; 0.1250 kg/ha): 9.0
herbicidal effect rating (IPOSS [9]; 0.2500 kg/ha): 9.0
herbicidal effect rating (IPOSS [9]; 0.5000 kg/ha): 9.0
herbicidal effect rating (AMBEL [10]; 0.0313-0.0320 kg/ha): 9.0 and 6.0 and 8.0
herbicidal effect rating (AMBEL [10]; 0.0625-0.0640 kg/ha): 9.0 and 6.5
herbicidal effect rating (AMBEL [10]; 0.1250 kg/ha): 9.0
herbicidal effect rating (AMBEL [10]; 0.2500 kg/ha): 9.0
herbicidal effect rating (AMBEL [10]; 0.5000 kg/ha): 9.0
herbicidal effect rating (GALAP [11]; 0.0625-0.0640 kg/ha): 9.0 and 5.0
herbicidal effect rating (GALAP [11]; 0.1250 kg/ha): 9.0
herbicidal effect rating (GALAP [11]; 0.2500 kg/ha): 9.0
herbicidal effect rating (GALAP [11]; 0.5000 kg/ha): 9.0
herbicidal effect rating (CASOB [12]; 0.0157-0.0160 kg/ha): 0.0
herbicidal effect rating (CASOB [12]; 0.0625-0.0640 kg/ha): 2.5 and 4.0
herbicidal effect rating (CASOB [12]; 0.1250 kg/ha): 7.0
herbicidal effect rating (CASOB [12]; 0.2500 kg/ha): 8.0
herbicidal effect rating (CASOB [12]; 0.5000 kg/ha): 7.0
herbicide rating (0-9) [13]: 5.0
herbicidal effect rating (ORYSAT; 0.0313-0.0320 kg/ha): 1.5 and 1.0
herbicidal effect rating (ORYSAT; 0.0625-0.0640 kg/ha): 1.0 and 1.8 and 1.5
herbicidal effect rating (ORYSAT; 0.1250 kg/ha): 4.5
herbicidal effect rating (ORYSAT; 0.2500 kg/ha): 5.0
herbicidal effect rating (ORYSAT; 0.5000 kg/ha): 5.0

— patent publication US6156700A, “3-(1,2-Benzisothiazol- and isoxazol-5-yl)-2,4(1H,3H)-pyrimidinedione or thione and 3-(1,2-benzisothiazol- and isoxazol-5-yl)-4(3H)-pyrimidinone or thione herbicidal agents” (American Cyanmid Company, priority 1998, dated 2000)
